{"source": "paper PMC9194936", "about": "“Preclinical Activity and Pharmacokinetic/Pharmacodynamic Relationship for a Series of Novel Benzenesulfonamide Perforin Inhibitors” (ACS Pharmacology & Translational Science, 2022)", "key": {"[1]": {"test": "One-compartment pharmacokinetic model simulations", "design": "species or system mouse", "protocol": "For determination of plasma concentrations of 1, C57BL/6 mice were treated with a single dose of 1 at four different dose levels (160, 120, 80, and 10 mg/kg) and blood samples were collected at multiple timepoints after dosing. Overall, the pharmacokinetics followed a dose-dependent relationship that was close to linear (Figure 3A). […] To confirm the accuracy of the simulations, C57BL/6 mice were treated intraperitoneally with 80, 120, or 160 mg/kg dose of 1 and the resulting plasma concentrations were evaluated at multiple time points within a 24 h period after one (0 h), two (0, 18 h) or three (0, 9 h, 18 h) doses.\nGiven the high concentrations required, there is potential for saturation of plasma protein binding to occur, where small dose increments could cause large increases in unbound concentrations.[35]\nTest samples were diluted up to 100-fold in blank plasma as necessary and quantitated against a calibration curve of known analyte concentrations ranging from 3 nM to 30 μM in an appropriate matrix and quality controls at 0.03, 0.3, 3, and 30 μM. Pharmacokinetic parameters were evaluated using noncompartmental analysis and pharmacokinetic simulations using one-compartment analysis on Phoenix WinNonlin version 6.2 (Certara, Princeton, NJ). Multiple-dose simulations were generated from parameters derived from single-dose simulations."}, "[2]": {"test": "Splenocyte cellularity and tolerability in the bone marrow transfer assay", "format": "in vivo", "conditions": "all dose levels (100, 75 and 50% of MTD), qd x 4", "protocol": "For the determination of splenic cell counts, mouse spleens were harvested and the cells dispersed in media by gentle teasing and then centrifuged at 500g. Cell pellets were resuspended in media and total spleen cell counts were performed manually using a standard hemocytometer and light microscopy. […] Peripheral blood cell counts and spleen white blood cell counts were determined on a Beckman Coulter Ac.T diff hematology analyzer."}, "perforin": {"molecular_target": "T1, perforin (Mus musculus, UniProt P10820)", "T1 construct": "endogenous in cells; host or cells: recipient cytotoxic lymphocytes (NK/CTL) of wild-type C57BL/6 mice, in vivo", "T1 sequence (P10820 21-554)": "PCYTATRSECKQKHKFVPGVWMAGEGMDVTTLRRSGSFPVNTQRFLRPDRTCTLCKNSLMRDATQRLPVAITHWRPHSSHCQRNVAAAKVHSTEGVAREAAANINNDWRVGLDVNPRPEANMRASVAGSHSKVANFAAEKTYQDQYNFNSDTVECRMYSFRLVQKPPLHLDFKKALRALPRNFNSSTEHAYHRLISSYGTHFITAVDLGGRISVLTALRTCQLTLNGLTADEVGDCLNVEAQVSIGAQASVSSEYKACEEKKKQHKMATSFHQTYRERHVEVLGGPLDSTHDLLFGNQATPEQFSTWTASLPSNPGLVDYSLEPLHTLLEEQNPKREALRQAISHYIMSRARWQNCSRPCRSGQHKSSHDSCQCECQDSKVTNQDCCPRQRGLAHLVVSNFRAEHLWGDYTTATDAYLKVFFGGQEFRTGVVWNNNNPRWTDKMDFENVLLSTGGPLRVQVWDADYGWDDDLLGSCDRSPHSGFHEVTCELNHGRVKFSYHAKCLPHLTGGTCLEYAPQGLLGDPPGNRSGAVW", "test": "PK/PD relationship (sigmoid Emax model, regression analysis)", "conditions": "in vivo mouse model", "protocol": "The relationship between efficacy (% perforin inhibition in peripheral blood and spleen) and pharmacokinetics was determined for different pharmacokinetic properties (Figure 5A,B). […] Simply maintaining the concentrations above a minimal level without reaching very high levels was not sufficient for perforin inhibition, as exemplified by three doses at 80 mg/kg.\nThe normality of in vivo perforin inhibition data was checked by Shapiro–Wilk and D’Agostino–Pearson normality tests. Statistical tests were performed by one-way ANOVA with multiple comparisons made to the vehicle-treated group and corrected using Dunnett’s post-test analysis. A comparison of measured and simulated plasma concentrations was analyzed by linear regression. Efficacy data were correlated to pharmacokinetic data using a sigmoid Emax model and regression analysis. All statistical analyses were conducted using Prism v8 or 9."}, "[3]": {"test": "Bodyweight, spleen and blood cellularity in unmanipulated naive mice", "format": "in vivo, mouse", "text": "Splenic atrophy may occur as a direct treatment-related effect or indirectly subsequent to bodyweight loss.[32] Spleen size does normally vary so is not a reliable indicator of splenic dysfunction;[33] however, severe atrophy can prevent the normal function of the spleen and indicate systemic immunotoxicity.[34] Given that reduced splenic cellularity had not been noted in other in vivo mouse disease models using 1,[14],[15] we further investigated the impact of 1 on mouse spleen using extended dosing strategies on unmanipulated naïve mice and assessing changes in bodyweight, splenocyte, and blood cell counts and leukocyte frequencies in the spleen. The mice were treated with either 100 or 150 mg/kg of 1 given by intraperitoneal injection twice daily for up to 7 days.\nFor the determination of splenic cell counts, mouse spleens were harvested and the cells dispersed in media by gentle teasing and then centrifuged at 500g. Cell pellets were resuspended in media and total spleen cell counts were performed manually using a standard hemocytometer and light microscopy. Lymphocyte subsets were quantified by flow cytometry using the following antibody reagents: BV605 rat anti-mouse CD3 clone 17A2 (#564009, BD Biosciences); BV786 rat anti-mouse CD4 clone RM4–5 (#563727, BD Biosciences); BV711 rat anti-mouse CD8a clone 53-6.7 (#100748, BioLegend); PE-Cy7 mouse anti-mouse NK1.1 clone PK136 mouse (#552878, BD Biosciences); APC rat anti-mouse CD19 clone 1D3 (#550992, BD Biosciences). Peripheral blood cell counts and spleen white blood cell counts were determined on a Beckman Coulter Ac.T diff hematology analyzer."}}, "note": "Marks after values point to notes of the source that are not given here."}
{"molecule": "CN1Cc2cc(-c3ccc(-c4cncc(NS(=O)(=O)c5ccccc5[N+](=O)[O-])c4)s3)ccc2C1=O", "note": "[Compound 1, N-{5-[5-(2-methyl-1-oxo-2,3-dihydro-1H-isoindol-5-yl)-2-thienyl]-3-pyridinyl}-2-nitrobenzenesulfonamide]", "values": [{"measurement": "duration that plasma concentration achieved 350 μM", "setting": "[1]; 80 mg/kg three-dose schedule", "result": 14.9, "unit": "h"}, {"measurement": "duration that plasma concentration achieved 350 μM", "setting": "[1]; two doses of 120 mg/kg", "result": 12.0, "unit": "h"}, {"measurement": "duration that plasma concentration achieved 350 μM", "setting": "[1]; two doses of 160 mg/kg", "result": 13.4, "unit": "h"}, {"measurement": "reductions in splenocyte number", "setting": "[2]", "result": "only minor reductions"}, {"measurement": "tolerability", "setting": "[2]", "result": "well tolerated"}, {"measurement": "total plasma concentration to be continuously maintained for optimal perforin inhibition", "setting": "perforin", "result": "> 900", "unit": "µM"}, {"measurement": "platelets", "setting": "[3]; 100 mg/kg i.p. bid ×7, n = 2", "result": "1041.5 ± 0.3 ^b ×10^9/L"}, {"measurement": "red blood cell", "setting": "[3]; 100 mg/kg i.p. bid ×7, n = 2", "result": "9.9 ± 0.3 ^b ×10^12/L"}, {"measurement": "white blood cell", "setting": "[3]; 100 mg/kg i.p. bid ×7, n = 2", "result": "6.1 ± 2.0 ^b ×10^9/L"}, {"measurement": "% change in bodyweight", "setting": "[3]; 100 mg/kg i.p. bid ×7, n = 6", "result": "–5 ± 2%"}, {"measurement": "spleen: % CD3+CD4+", "setting": "[3]; 100 mg/kg i.p. bid ×7, n = 6", "result": "7.9 ± 3.3", "unit": "%"}, {"measurement": "spleen: % CD3+CD8+", "setting": "[3]; 100 mg/kg i.p. bid ×7, n = 6", "result": "9.1 ± 2.6", "unit": "%"}, {"measurement": "spleen: % CD19+", "setting": "[3]; 100 mg/kg i.p. bid ×7, n = 6", "result": "45.4 ± 10.1", "unit": "%"}, {"measurement": "spleen: % NK1.1+", "setting": "[3]; 100 mg/kg i.p. bid ×7, n = 6", "result": "2.3 ± 0.6", "unit": "%"}, {"measurement": "spleen: total cell count", "setting": "[3]; 100 mg/kg i.p. bid ×7, n = 6", "result": "0.39 ± 0.08 ×10^8"}, {"measurement": "% change in bodyweight", "setting": "[3]; 150 mg/kg i.p. bid ×3, n = 3", "result": "–5.1 ± 5.9%"}, {"measurement": "platelets", "setting": "[3]; 150 mg/kg i.p. bid ×3, n = 3", "result": "1163 ± 149 ×10^9/L"}, {"measurement": "red blood cell", "setting": "[3]; 150 mg/kg i.p. bid ×3, n = 3", "result": "9.5 ± 0.9 ×10^12/L"}, {"measurement": "spleen: % CD3+CD4+", "setting": "[3]; 150 mg/kg i.p. bid ×3, n = 3", "result": "5.6 ± 3.8", "unit": "%"}, {"measurement": "spleen: % CD3+CD8+", "setting": "[3]; 150 mg/kg i.p. bid ×3, n = 3", "result": "10.6 ± 3.4", "unit": "%"}, {"measurement": "spleen: % CD19+", "setting": "[3]; 150 mg/kg i.p. bid ×3, n = 3", "result": "41.4 ± 5.3", "unit": "%"}, {"measurement": "spleen: % NK1.1+", "setting": "[3]; 150 mg/kg i.p. bid ×3, n = 3", "result": "5.0 ± 0.7", "unit": "%"}, {"measurement": "spleen: total cell count", "setting": "[3]; 150 mg/kg i.p. bid ×3, n = 3", "result": "0.41 ± 0.46 ×10^8"}, {"measurement": "white blood cell", "setting": "[3]; 150 mg/kg i.p. bid ×3, n = 3", "result": "6.0 ± 0.4 ×10^9/L"}, {"measurement": "weight loss, change in spleen or blood cell counts, reduction in splenic T, B or NK cells vs vehicle", "setting": "[3]; 100 or 150 mg/kg i.p. twice daily for up to 7 days", "result": "Neither dosing schedule resulted in weight loss, change in spleen or blood cell counts or any reduction"}]}
